Experimental data: article PMC6554663, “Pharmaceutical Effects of Inhibiting the Soluble Epoxide Hydrolase in Canine Osteoarthritis” (Frontiers in Pharmacology, 2019)

System: Canine chondrocytes (CnC)
Assay: IL1β induced chondrocyte cytotoxicity (Alamar Blue)
Format: cell-based
Settings: meloxicam 1 μg/mL, EET 0.4 μg/mL total, 48 h
Protocol: Canine chondrocytes (CnC) were purchased from Cell Applications, Inc. […] Cells were kept at room temperature and monitored for detachment (∼2 min). Detached cells were added to 3× volume of full growth media and centrifuged to remove trypsin. Cells were reseeded at a concentration of 15,000 cells/cm^2 to reach 80% confluence in 3 days. Cells were expanded and frozen at the third passage in CGS containing 10% DMSO. For individual experiments, fresh cells were thawed and used at passage 5. Canine chondrocytes cells were plated in 96-well plates at a density of 15,000 cells/cm^2. Optimal cell number was predetermined by a cell seeding experiment outlined in [O'Brien et al. […] After 2 h, the IL1β treated media was aspirated and replaced with complete growth media supplemented with either vehicle (0.1% ethanol), regioisomers of EETs, or meloxicam for 48-h before assessing inflammatory cytokines and cytotoxicity. Cells were also pretreated with meloxicam or EET mixture 30 min prior to adding IL1β treatment for 2-h. After IL1β was removed, treatments were added to complete growth media for 48-h as described above. Treatment conditions are described in the Section “Results.” After the CnC cells were treated for 48-h under conditions described above, the media was removed and replaced with complete media containing 10% Alamar Blue (Life Technologies, catalog number DAL1025). The Alamar Blue assay relies on the metabolism of non-fluorescent resazurin to the highly fluorescent resorufin by healthy cells. Fluorescent intensity can be used to track cytotoxicity after xenobiotic treatments ([Larson et al., 1997]). After the addition of Alamar Blue, plates were protected from light and incubated at […] in a 5% CO2 atmosphere for 8 h. The conversion of resazurin was monitored by reading fluorescence at 570 excitations and 585 emission on a plate reader (Tecan […]) and cytotoxicity was calculated as the ratio of fluorescence from treated cells to non-treated controls.

For `Cc1cnc(NC(=O)C2=C(O)c3ccccc3S(=O)(=O)N2C)s1` [Meloxicam], the “IL1β induced cytotoxicity, treatment added after IL1β” value (10 ng/mL IL1β 2 h) was “did not result in significant reduction in cytotoxicity”, the “IL1β induced cytotoxicity, treatment added before IL1β” value (10 ng/mL IL1β 2 h) was “significantly reduced” and the “effect on healthy CnC cells (cytotoxicity, Alamar Blue)” value (absence of IL1β) was “no effect”.
